Species: Rattus norvegicus
Assay: Open TG-GATES - Regimen: Single
Type: toxicity, organism-based, Sprague-Dawley
Parameters: regimen Single, gender Male, age 6 weeks
Conditions: in vivo, po, 0 mg/kg, route gavage, dose level Control; for APTT / Bas / Eos / Fbg / Hb / Ht / Lym / MCH / MCHC / MCV / Mono / Neu / PT / Plat / RBC / Ret / WBC: tissue Blood; for KIDNEY_L / KIDNEY_R / KIDNEY_TOTAL: tissue Kidney; for LIVER: tissue Liver; for ALP / ALT / AST / BUN / CRE / Ca / Cl / DBIL / GLC / IP / K / LDH / Na / PL / RALB / TBIL / TC / TG / TP / gamma-GTP: tissue Plasma

SMILES: COC(=O)C1=C(C)NC(C)=C(C(=O)OC)C1c1ccccc1[N+](=O)[O-] [NIFEDIPINE]
- TERMINAL_BW (3 h): 197.5 g
- APTT (3 h): 16.4 s
- Bas (3 h): 0.2%
- Eos (3 h): 0.8%
- Fbg (3 h): 271 mg/dL
- Hb (3 h): 13.3 g/dL
- Ht (3 h): 41.5%
- Lym (3 h): 74.2%
- MCH (3 h): 20.8 pg
- MCHC (3 h): 32.1%
- MCV (3 h): 64.8 fL
- Mono (3 h): 2.6%
- Neu (3 h): 21.2%
- PT (3 h): 14.8 s
- Plat (3 h): 120 x10_4/uL
- RBC (3 h): 641.4 x10_4/ul
- Ret (3 h): 8.7%
- WBC (3 h): 85.8 x10_2/uL
- KIDNEY_L (3 h): 0.9 g
- KIDNEY_R (3 h): 0.9 g
- KIDNEY_TOTAL (3 h): 1.8 g
- LIVER (3 h): 8.4 g
- ALP (3 h): 1457.4 IU/L
- ALT (3 h): 49.6 IU/L
- AST (3 h): 81.8 IU/L
- BUN (3 h): 9.4 mg/dL
- CRE (3 h): 0.2 mg/dL
- Ca (3 h): 10.6 mg/dL
- Cl (3 h): 105.6 meq/L
- DBIL (3 h): 0.012 mg/dL
- GLC (3 h): 178.4 mg/dL
- IP (3 h): 9.6 mg/dL
- K (3 h): 4.4 meq/L
- LDH (3 h): 90.8 IU/L
- Na (3 h): 142 meq/L
- PL (3 h): 128.2 mg/dL
- RALB (3 h): 2.5 g/dL
- TBIL (3 h): 0.044 mg/dL
- TC (3 h): 70.2 mg/dL
- TG (3 h): 42.4 mg/dL
- TP (3 h): 5.2 g/dL
- gamma-GTP (3 h): 1 IU/L
- TERMINAL_BW (6 h): 197 g
- APTT (6 h): 16.6 s
- Bas (6 h): 0.2%
- Eos (6 h): 1%
- Fbg (6 h): 298 mg/dL
- Hb (6 h): 13.5 g/dL
- Ht (6 h): 42.2%
- Lym (6 h): 71.2%
- MCH (6 h): 21.1 pg
- MCHC (6 h): 32%
- MCV (6 h): 65.8 fL
- Mono (6 h): 3.2%
- Neu (6 h): 23.6%
- PT (6 h): 15 s
- Plat (6 h): 127.7 x10_4/uL
- RBC (6 h): 641.2 x10_4/ul
- Ret (6 h): 8.8%
- WBC (6 h): 94.9 x10_2/uL
- KIDNEY_L (6 h): 0.9 g
- KIDNEY_R (6 h): 0.9 g
- KIDNEY_TOTAL (6 h): 1.7 g
- LIVER (6 h): 8.2 g
- ALP (6 h): 1485.2 IU/L
- ALT (6 h): 43.4 IU/L
- AST (6 h): 71 IU/L
- BUN (6 h): 9 mg/dL
- CRE (6 h): 0.2 mg/dL
- Cl (6 h): 107.4 meq/L
- DBIL (6 h): 0.008 mg/dL
- GLC (6 h): 177.8 mg/dL
- IP (6 h): 9.7 mg/dL
- K (6 h): 4.2 meq/L
- LDH (6 h): 70.4 IU/L
- Na (6 h): 144 meq/L
- PL (6 h): 139.8 mg/dL
- RALB (6 h): 2.5 g/dL
- TBIL (6 h): 0.036 mg/dL
- TC (6 h): 78.8 mg/dL
- TG (6 h): 56 mg/dL
- TP (6 h): 5.4 g/dL
- gamma-GTP (6 h): 1 IU/L
- TERMINAL_BW (9 h): 193.8 g
- APTT (9 h): 16 s
- Bas (9 h): 0%
- Eos (9 h): 1%
- Fbg (9 h): 297 mg/dL
- Hb (9 h): 13.1 g/dL
- Ht (9 h): 40.6%
- Lym (9 h): 80.6%
- MCH (9 h): 21 pg
- MCHC (9 h): 32.4%
- MCV (9 h): 65 fL
- Mono (9 h): 2%
- Neu (9 h): 15.8%
- PT (9 h): 14.7 s
- Plat (9 h): 120.3 x10_4/uL
- RBC (9 h): 626.4 x10_4/ul
- Ret (9 h): 9%
- WBC (9 h): 65.5 x10_2/uL
- KIDNEY_L (9 h): 0.9 g
- KIDNEY_R (9 h): 0.9 g
- KIDNEY_TOTAL (9 h): 1.7 g
- LIVER (9 h): 7.4 g
- ALP (9 h): 1438.2 IU/L
- ALT (9 h): 35.6 IU/L
- AST (9 h): 67 IU/L
- BUN (9 h): 8.2 mg/dL
- CRE (9 h): 0.2 mg/dL
- Ca (9 h): 10.4 mg/dL
- Cl (9 h): 106.6 meq/L
- DBIL (9 h): 0.002 mg/dL
- GLC (9 h): 162.8 mg/dL
- IP (9 h): 10.2 mg/dL
- K (9 h): 3.7 meq/L
- LDH (9 h): 61.4 IU/L
- Na (9 h): 143.4 meq/L
- PL (9 h): 130.6 mg/dL
- RALB (9 h): 2.5 g/dL
- TBIL (9 h): 0.04 mg/dL
- TC (9 h): 79 mg/dL
- TG (9 h): 18.4 mg/dL
- TP (9 h): 5.3 g/dL
- gamma-GTP (9 h): 1.2 IU/L
- TERMINAL_BW (24 h): 213.5 g
- APTT (24 h): 16.3 s
- Bas (24 h): 0%
- Eos (24 h): 1%
- Fbg (24 h): 285.8 mg/dL
- Hb (24 h): 13.1 g/dL
- Ht (24 h): 40.6%
- Lym (24 h): 73.2%
- MCH (24 h): 21.2 pg
- MCHC (24 h): 32.3%
- MCV (24 h): 65.5 fL
- Mono (24 h): 3%
- Neu (24 h): 21.8%
- PT (24 h): 14.2 s
- Plat (24 h): 118.4 x10_4/uL
- RBC (24 h): 620 x10_4/ul
- Ret (24 h): 8.7%
- WBC (24 h): 87.2 x10_2/uL
- KIDNEY_L (24 h): 0.9 g
- KIDNEY_R (24 h): 0.9 g
- KIDNEY_TOTAL (24 h): 1.8 g
- LIVER (24 h): 9.6 g
- ALP (24 h): 1663.2 IU/L
- ALT (24 h): 44 IU/L
- AST (24 h): 75 IU/L
- BUN (24 h): 15.2 mg/dL
- CRE (24 h): 0.2 mg/dL
- Ca (24 h): 11 mg/dL
- Cl (24 h): 106.6 meq/L
- DBIL (24 h): 0.018 mg/dL
- GLC (24 h): 187 mg/dL
- IP (24 h): 8.3 mg/dL
- K (24 h): 4.3 meq/L
- LDH (24 h): 67.4 IU/L
- Na (24 h): 145.6 meq/L
- PL (24 h): 156.8 mg/dL
- RALB (24 h): 2.7 g/dL
- TBIL (24 h): 0.03 mg/dL
- TC (24 h): 87.8 mg/dL
- TG (24 h): 62.6 mg/dL
- TP (24 h): 5.7 g/dL
